Measured values as given in publication PMC4503722, “Novel Phenotypic Outcomes Identified for a Public Collection of Approved Drugs from a Publicly Accessible Panel of Assays” (PLoS ONE, 2015).
pEC50, pIC50: −log10 of the molar value. Where two headings read alike, the source gives them in different places.

Experiments:
[1] = system: INS-1E cells; assay: cells; assay type: cell-based, rat
[2] = system: tonic K+ channel activity in INS-1E cells; assay: cells; assay type: cell-based, rat; conditions: for pIC50: Rattus norvegicus, INS-1E, read-out: K+ channel assay IC50
[3] = system: INS-1E cells; assay type: cell-based, rat;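 on 5mMGluc INS1E SecretionMod IC50/EC50: secreted insulin quantified by homogeneous immunoassay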;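 on IC50/EC50, 5mMGluc INS1E SecretionMod (assay number 8): secreted insulin quantified by homogeneous immunoassay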
[4] = system: HeLa cells; assay: cells; assay type: cell-based; conditions: for pEC50: Homo sapiens, HeLa, read-out: CellCycle G2/M
[5] = system: SW480; assay: cells; assay type: cell-based; conditions: Homo sapiens
[6] = system: DLD-1; assay: cells; assay type: cell-based; conditions: Homo sapiens
[7] = system: HCT116 cells treated with a GSK3β inhibitor; assay: cells; assay type: cell-based; conditions: Homo sapiens
[8] = system: endothelial tube formation in co-cultures of ECFCs and ADSCs treated with VEGF; assay: cells; assay type: cell-based, human; conditions: Homo sapiens, read-out: Anti-Angio IC50
[9] = system: nuclear β-catenin in C2C12 cells; assay: cells; assay type: cell-based; conditions: Mus musculus
[10] = system: HCT116; assay: cells; assay type: cell-based; conditions: Homo sapiens
[11] = system: NCI-H716 cells; assay: cells; assay type: cell-based, Human
[12] = assay number 10, 0.1 mM glucose
[13] = SW480, 72 h, read-out: SW480 viab. IC50
[14] = SW480, read-out: Basal_Viability ATP SW480
[15] = DLD-1, 72 h, read-out: DLD-1 viab. IC50
[16] = Rattus norvegicus, INS-1E, read-out: Ins. sec. EC50
[17] = Rattus norvegicus, INS-1E, read-out: Insulin Secretion
[18] = HCT-116, 72 h, read-out: HCT-116 (GSK3β) viab. IC50
[19] = HCT-116, 72 h, read-out: HCT-116 viab. IC50
[20] = Homo sapiens, NCI-H716, read-out: GLP1 sec. EC50
[21] = SW480, 72 h, Table 2, 72 h, Cell TiterGlo, non-adherent, 20 coded, read-out: SW480 viab. IC50
[22] = DLD-1, 72 h, Table 2, 72 h, Cell TiterGlo, non-adherent, 20 coded, read-out: DLD-1 viab. IC50
[23] = Rattus norvegicus, INS-1E; read-out: Ins. sec. EC50
[24] = HCT-116, read-out: HCT-116 (GSK3β) viab. IC50, Table 2, GSK3β inhibitor LY2090314 20 nM, 72 h, Cell TiterGlo, 20 coded
[25] = Table 2, primary assay tube area, 20 = no response in concentration-response, 20.1 = inactive in single concentration testing
[26] = C2C12, Table 2, C2C12, […], 20 / 20.1 coded, read-out: Wnt pot. EC50
[27] = HCT-116, 72 h, read-out: HCT-116 viab. IC50, Table 2, basal, 72 h, Cell TiterGlo, non-adherent, 20 coded

With `CCN(CC)CCOc1ccccc1C(=O)CCc1ccccc1` [NCGC00160484-02] the “IC50/EC50, 5mMGluc_INS1E SecretionMod (assay number 8)” value ([1]; 5 mM glucose) was 3.892 µM, the “IC50/EC50, 0.1mMGluc_INS1E FluxOR (assay number 10)” value ([2]; 0.1 mM glucose) was 6.739 µM and the “IC50/EC50, 0.1mMGluc_INS1E SecretionMod Act (assay number 9)” value ([3]; 0.1 mM glucose) was > 33.33 µM. For the same compound, the “IC50/EC50, Hela CellCycMod PI 2N (assay number 14)” value ([4]; 2N) was > 10 µM, the “IC50/EC50, Hela CellCycMod PI 4N (assay number 16)” value ([4]; 4N) was > 10 µM and the “IC50/EC50, Hela CellCycMod PI Cell Number (assay number 18)” value ([4]; Cell Number) was > 10 µM. For the same compound, the “IC50/EC50, Hela CellCycMod PI MI (assay number 17)” value ([4]; MI) was > 10 µM and the “IC50/EC50, Hela CellCycMod PI S Phase (assay number 15)” value ([4]; S Phase) was > 10 µM.
With `CCN(CC)CCCN(c1ccccc1)C1Cc2ccccc2C1.Cl` [NCGC00167576-02] the “5mMGluc_INS1E SecretionMod IC50/EC50” value ([1]; assay number 8; 5 mM glucose) was 7.1279 µM, the “0.1mMGluc_INS1E FluxOR IC50/EC50” value [2, 12] was 14.9742 µM and the “0.1mMGluc_INS1E SecretionMod Act IC50/EC50” value ([3]; assay number 9, 0.1 mM glucose) was > 33.33 µM.
With `CC(C)C1CCC(C(=O)N[C@H](Cc2ccccc2)C(=O)O)CC1` (stereo partly drawn) [NCGC00178741-03] the “5mMGluc_INS1E SecretionMod IC50/EC50” value ([1]; assay number 8; 5 mM glucose) was 7.074 µM, the “0.1mMGluc_INS1E FluxOR IC50/EC50” value [2, 12] was 0.2515 µM and the “0.1mMGluc_INS1E SecretionMod Act IC50/EC50” value ([3]; assay number 9, 0.1 mM glucose) was > 33.33 µM.
With `CC1CC(=O)NN=C1c1ccc(NCC(C)(C)NCC(O)COc2cc(Cl)ccc2C#N)cc1` (stereo not drawn) [NCGC00249416-01] the “5mMGluc_INS1E SecretionMod IC50/EC50” value ([1]; assay number 8; 5 mM glucose) was 15.1547 µM, the “0.1mMGluc_INS1E FluxOR IC50/EC50” value [2, 12] was 84.8421 µM and the “0.1mMGluc_INS1E SecretionMod Act IC50/EC50” value ([3]; assay number 9, 0.1 mM glucose) was > 33.33 µM.
In the case of `Cc1ccc(CCn2c3c(c4cc(Cl)ccc42)CN(C)CC3)cn1` [NCGC00253726-01], the “5mMGluc_INS1E SecretionMod IC50/EC50” value ([1]; assay number 8; 5 mM glucose) was 4.201 µM, the “0.1mMGluc_INS1E FluxOR IC50/EC50” value [2, 12] was 39.9057 µM and the “0.1mMGluc_INS1E SecretionMod Act IC50/EC50” value ([3]; assay number 9, 0.1 mM glucose) was > 33.33 µM. The “Hela CellCycMod PI 2N IC50/EC50” value ([4]; assay number 14, 2N) was > 10 µM, the “Hela CellCycMod PI S Phase IC50/EC50” value ([4]; assay number 15, S phase) was > 10 µM and the “Hela CellCycMod PI 4N IC50/EC50” value ([4]; assay number 16, 4N) was > 10 µM. For the same compound, the “Hela CellCycMod PI MI IC50/EC50” value ([4]; assay number 17, MI) was > 10 µM and the “Hela CellCycMod PI Cell Number IC50/EC50” value ([4]; assay number 18, cell number) was > 10 µM.
For `CC(CC1c2ccccc2CCc2ccccc21)CN(C)C` (stereo not drawn) [NCGC00274277-01], the “5mMGluc_INS1E SecretionMod IC50/EC50” value [1] was 3.6382 µM, the “0.1mMGluc_INS1E FluxOR IC50/EC50” value [2] was 19.9984 µM and the “0.1mMGluc_INS1E SecretionMod Act IC50/EC50” value [3] was > 33.33 µM. For the same compound, the “Hela CellCycMod PI 2N IC50/EC50” value [4] was > 10 µM, the “Hela CellCycMod PI 4N IC50/EC50” value [4] was > 10 µM and the “Hela CellCycMod PI Cell Number IC50/EC50” value [4] was > 10 µM. For the same compound, the “Hela CellCycMod PI MI IC50/EC50” value [4] was > 10 µM and the “Hela CellCycMod PI S Phase IC50/EC50” value [4] was > 10 µM.
In the case of `CN(C)CCC=C1c2ccccc2CCc2ccccc21` [amitriptyline, reference compound], the pIC50 [5, 13] was 5.00, the pIC50 [5, 14] was 5.00 and the pIC50 [6, 15] was < 4.70. It also gave a pEC50 [1, 16] of 5.52, a pEC50 [1, 17] of 5.52 and a pIC50 [2] of 5.21. For the same compound, the pIC50 [7, 18] was < 4.70, the pIC50 [8] was < 5.00 and the pEC50 ([9]; C2C12, read-out: Wnt pot. EC50) was < 5.00. The pIC50 [10, 19] was < 4.70, the pEC50 [11, 20] was < 5.00 and the pEC50 [4] was < 5.00.
For `CC(CC1c2ccccc2CCc2ccccc21)CN(C)C` (stereo not drawn) [butriptyline, reference compound], the pIC50 [5, 13] was 5.11, the pIC50 [5, 14] was 5.11 and the pIC50 [6, 15] was 5.09. It also gave a pIC50 ([6]; DLD-1, read-out: Basal_Viability ATP DLD-1) of 5.09, a pEC50 [1, 16] of 5.44 and a pEC50 [1, 17] of 5.44. The pIC50 [2] was < 4.70, the pIC50 [7, 18] was < 4.70 and the pIC50 [8] was < 5.00. For the same compound, the pEC50 ([9]; C2C12, read-out: Wnt pot. EC50) was < 5.00, the pIC50 [10, 19] was 5.21 and the pIC50 ([10]; HCT-116, read-out: Basal_Viability ATP HCT116) was 5.21. For the same compound, the pEC50 [11, 20] was < 5.00 and the pEC50 [4] was < 5.00.
In the case of `CCN(CC)CCOc1ccccc1C(=O)CCc1ccccc1` [etafenone, reference compound], the pIC50 [5, 21] was 4.77, the pIC50 ([5]; SW480, basal, SW480, read-out: Basal_Viability ATP SW480) was 4.77 and the pIC50 [6, 22] was < 4.70. It also gave a pEC50 [1, 23] of 5.41, a pEC50 ([1]; Rattus norvegicus, INS-1E; read-out: Insulin Secretion) of 5.41 and a pIC50 ([2]; 0.1 mM glucose, thallium flux) of 5.17. For the same compound, the pIC50 [7, 24] was < 4.70, the pIC50 [8, 25] was < 5.00 and the pEC50 [9, 26] was < 5.00. For the same compound, the pIC50 [10, 27] was 4.95, the pIC50 ([10]; HCT-116, basal, HCT116, read-out: Basal_Viability ATP HCT116) was 4.95 and the “G2/M IC50 / EC50” value [4] was 20 (values shown as 20 indicate that the compound was tested in concentration-response and showed no response at the highest concentration tested (e.g. IC50 > 20 μM)). The pEC50 ([4]; S2 Table, 20 = no response at highest concentration) was < 5.00.
`CCN(CCCCOC(=O)c1ccc(OC)c(OC)c1)C(C)Cc1ccc(OC)cc1` (stereo not drawn) [mebeverine, reference compound] was tested, and the pIC50 [5, 21] was < 4.70, the pIC50 [6, 22] was < 4.70 and the pEC50 [1, 23] was 5.70. The pEC50 ([1]; Rattus norvegicus; IC50 / EC50; INS-1E; read-out: Insulin Secretion) was 5.71, the pIC50 ([2]; 0.1 mM glucose, thallium flux) was 5.77 and the pIC50 [7, 24] was < 4.70. The pIC50 [8, 25] was < 5.00, the pEC50 [9, 26] was < 5.00 and the pIC50 [10, 27] was < 4.70. For the same compound, the pEC50 ([11]; Homo sapiens, NCI-H716; read-out: GLP1 sec. EC50) was < 5.00, the “G2/M IC50 / EC50” value [4] was 20 (values shown as 20 indicate that the compound was tested in concentration-response and showed no response at the highest concentration tested (e.g. IC50 > 20 μM)) and the pEC50 ([4]; IC50 / EC50) was < 5.00.
